Legend:
[1] = Anaerobic Cu(I) titration in competition with bicinchoninic acid (BCA); type: binding
Description: Freeze-dried synthetic PLS peptide (Cambridge Research Biochemicals) was dissolved in DMSO. An aliquot was added to aqueous buffer (10 mM HEPES [pH 7], 20 mM NaCl, 80 mM KCl), and absorbance was recorded at 280 nm. PLS concentration was estimated from the absorbance and the ProtParam estimated extinction coefficient of 2980 M^−1 cm^−1. Concurrently, a sample was submitted for quantitative amino acid analysis (Abingdon Health Laboratory Services). From this analysis, a conversion factor of 2.27 was generated, which was applied to the concentrations determined by A280 nm.
A fusion of PLS to MBP was created using the NEBExpress MBP Fusion and Purification System. Two complementary oligonucleotide primers encoding PLS (optimized for expression in E. coli) were annealed and inserted into the pMal-c5x plasmid at the XmnI and SalI insertion sites. The three mutants MBP:PLS(C6S), MBP:PLS(C17S), and MBP:PLS(C6S/C17S) were created by site-directed mutagenesis (QuikChange II, Agilent). E. coli NEB Express containing the pMal plasmid with the correct MBP:PLS mutant was used to overexpress each protein. Harvested cells were resuspended in 20 mM Tris–HCl (pH 7.4), 200 mM NaCl, and 1 mM EDTA, then frozen at −20°C overnight. Cells were defrosted in cold H2O, sonicated, purified by ammonium sulfate precipitation (where MBP-PLS precipitates >60% saturation), separated on an MBP-Trap column (GE Healthcare), and eluted using buffer containing 10 mM maltose. MBP:PLS-containing fractions were pooled and concentrated using a centrifugal concentrator (Corning, Spin-X UF 30 kDa) and buffer exchanged by desalting column into a metal-free buffer of 20 mM HEPES (pH 7.0) and 50 mM NaCl in an anaerobic chamber (Belle Technology). Mutants containing thiols were quantified using Ellman’s assay, and MBP:PLS(C6S/C17S), which lacks all thiols, was quantified using the Bradford assay alone. Samples were also analyzed for metal content by ICP–MS to ensure >95% apo-protein.
All Cu(I) titration experiments were carried out in an anaerobic chamber (Belle Technology) using metal-free CHELEX-treated, degassed buffers. For titration experiments with Cu(I), aqueous CuSO4 stock was quantified in advance by ICP–MS and diluted to working concentrations. The reductant NH2OH was included at a final concentration of 1 mM to maintain Cu(I) in its reduced state. Proteins were diluted in buffer to the final concentration specified in each titration in air-tight quartz cuvettes (Helma), and after addition of probe to the concentration specified, titrated with CuSO4. After each addition, solutions were thoroughly mixed and absorbance spectra recorded using a Lambda 35 UV/Vis spectrophotometer (PerkinElmer). Titration isotherm data were fitted using simulated affinity curves with DynaFit ([Kuzmič, 2009]).

[2] = Titration of PLS in the presence of BCA2-Cu(I) complex; type: binding; conditions: PLS serially diluted from 496 µM to 214 nM; 125 µM BCA, 50 µM CuCl, 50 mM HEPES, 150 mM NaCl, 20 mM ascorbate, pH 7.6; A562 nm, n = 3
Description: Figure S9. Titration of PLS in the presence of BCA2-Cu(I)-Complex.
A solution of synthetic PLS in 50 µl buffer (50 mM HEPES, 150 mM NaCl, pH 7.6) was serially diluted from 496 µM to 214 nM. After the addition of 50 µl BCA2-Cu(I) buffer (50 mM HEPES, 150 mM NaCl, 20 mM ascorbate, 125 µM BCA, 50 µM CuCl, pH 7.6) the absorbance at 562 nm was measured. Discoloration of the pink BCA2-Cu(I) complex visible in the decrease of absorption at higher peptide concentration indicates […]
chelator BCA. Bars represent means ± SD, n = 3.
(1 picture or pasted object on this page, not shown here)

[3] = 44.8 μM synthetic PLS, 87 μM BCA, anaerobic

PLS(FL): full-length 36-amino-acid PLS peptide from Arabidopsis (MKPRLCFNFRRRSISPCYISISYLLVAKLFKLFKIH)
Cu(I) affinity relative to BCA [1, 3]: tighter than that of BCA | increase in Cu(I) concentration required to saturate BCA [1, 3]: ~20 µM | withholding of Cu(I) from BCA ([1]; synthetic peptide, mutant 40 μM, BCA 93.3 μM, mean ± SD, n = 3 (supplemental Figure 10)): withholds Cu(I) from BCA | competition for copper with BCA [2]: able to effectively compete and remove copper
